Measurements taken from patent publication US20170217889A1, “4-SUBSTITUTED PYRIDINE-2,6-DICARBOXYLIC ACID DERIVATIVES AND METHOD OF PREPARING SAME” (Okinawa Institute of Science and Technology School …, priority 2014, published 2017).
pIC50: −log10 of the molar value.

Experiment: Cytotoxicity, K562 cell growth inhibition (Cell Counting Kit-8 / WST-8)
Format: cell-based
Settings: human; K562 cells; 6-48 hrs incubation; WST-8 absorbance at 450 nm; read-out: Cytotoxic activity evaluated using K562 cells IC50
Protocol: K562 cells (American Type Culture Collection) were cultured in a culture medium containing 10% (v/v) fetal calf serum (FCS) (manufactures by Sigma) to logarithmic phase. The cells were seeded in 96-well microtiter plate at a density of 5000 cells/well in 100 μL cell culture medium and incubated at 37° C. and 5% CO2 in a humidified incubator overnight. The test compounds of various concentrations were added in a well at 10 fold concentration in 1/10 volume of medium without FCS. After 6-48 hrs incubation at 37° C. in the CO2 incubator, 10 uL solution of the viable cell counting reagent, Cell counting Kit-8 (5 mmol/L WST-8, 0.2 mmol/L 1-Methoxy PMS, 150 mmol/L NaCl) (manufactured by Dojindo) was added to each well, and reacted for 1 to 4 hours in the CO2 incubator. After the incubation, an absorbance of formazan, generated by reduction of WST-8, was determined at 450 nm using a microplate reader.
The assay readout is correlated with the viable cell numbers. Lower values correspond to high inhibition and greater values to low inhibition of the cell growth. To determine IC50 values (i.e. the concentration inhibiting the cell growth by 50%) of the compounds of formula I, several assays were made with a range of concentrations chosen empirically to give low, high and intermediate inhibition of the growth and determined using curve fitting software.

SMILES	pIC50
CCOC(=O)c1cc(-c2ccc(Br)cc2)cc(C(=O)OCC)n1	4.46
CCOC(=O)c1cc(-c2ccc(Cl)cc2)cc(C(=O)OCC)n1	4.30
CCOC(=O)c1cc(C2CCCCC2)cc(C(=O)OCC)n1	4.29
